# Experimental data as given in patent US12077503B2, “Substituted cyclic amides and their use as herbicides” (FMC CORPORATION, priority 2015, dated 2024).
# Like-named read-outs stand apart in the source and are kept apart here.
# Key:
# Assay in all cases: Test A preemergence
# Assay type in all cases: in vivo
# [1] = test system: giant foxtail (Setaria faberii); settings: Setaria faberi, pre-emergence, 240 h; for pest or weed control at 125 g/ha: 125 g ai/ha; for pest or weed control at 500 g/ha: 500 g ai/ha
# In short: (§1)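 Seeded soil received test chemicals as a preemergence directed spray, and seedlings at one to two leaves, 2–10 cm tall, received them postemergence, in a non-phytotoxic, surfactant-containing solvent mixture. Pots were held in a greenhouse for approximately 10 d, then rated for injury from 0, no effect, to 100, complete control.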
# [2] = test system: barnyardgrass (Echinochloa crus-galli); settings: Echinochloa crus-galli, pre-emergence, 240 h; for pest or weed control at 125 g/ha: 125 g ai/ha; for pest or weed control at 500 g/ha: 500 g ai/ha
# In short: as §1
# [3] = test system: ryegrass, Italian (Italian ryegrass, Lolium multiflorum); settings: Lolium multiflorum, pre-emergence, 240 h; for pest or weed control at 125 g/ha: 125 g ai/ha; for pest or weed control at 500 g/ha: 500 g ai/ha
# In short: as §1
# [4] = test system: ragweed (common ragweed, Ambrosia elatior); settings: Ambrosia artemisiifolia, pre-emergence, 240 h; for pest or weed control at 125 g/ha: 125 g ai/ha; for pest or weed control at 500 g/ha: 500 g ai/ha
# In short: as §1
# Kochia (Kochia scoparia) = settings: Bassia scoparia, pre-emergence, 240 h; for pest or weed control at 125 g/ha: 125 g ai/ha; for pest or weed control at 500 g/ha: 500 g ai/ha
# In short: as §1
# [5] = test system: pigweed (Amaranthus retroflexus); settings: Amaranthus retroflexus, pre-emergence, 240 h; for pest or weed control at 125 g/ha: 125 g ai/ha; for pest or weed control at 500 g/ha: 500 g ai/ha
# [6] = preemergence, visual rating after approx. 10 d, 0 to 100 scale where 0 is no effect and 100 is complete control, read-out: Plant response rating, Foxtail, Giant
# [7] = preemergence, visual rating after approx. 10 d, 0 to 100 scale where 0 is no effect and 100 is complete control, read-out: Plant response rating, Barnyardgrass
# [8] = preemergence, visual rating after approx. 10 d, 0 to 100 scale where 0 is no effect and 100 is complete control, read-out: Plant response rating, Ryegrass, Italian
# [9] = preemergence, visual rating after approx. 10 d, 0 to 100 scale where 0 is no effect and 100 is complete control, read-out: Plant response rating, Ragweed
# [10] = preemergence, visual rating after approx. 10 d, 0 to 100 scale where 0 is no effect and 100 is complete control, read-out: Plant response rating, Kochia
# [11] = preemergence, visual rating after approx. 10 d, 0 to 100 scale where 0 is no effect and 100 is complete control, read-out: Plant response rating, Pigweed
compound,measurement,setting,value
CC(F)(F)c1cccc([C@H]2CNC(=O)[C@@H]2C(=O)Nc2cccc(F)c2F)c1 [Compound 779],pest or weed control at 125 g/ha,[1]; [6],90%
same,pest or weed control at 500 g/ha,"[1]; Preemergence, visual injury vs untreated controls after approximately 10 d, read-out: Foxtail, Giant plant response rating (0 to 100 scale where 0 is no effect and 100 is complete control)",90%
same,pest or weed control at 125 g/ha,[2]; [7],90%
same,pest or weed control at 500 g/ha,"[2]; Preemergence, visual injury vs untreated controls after approximately 10 d, read-out: Barnyardgrass plant response rating (0 to 100 scale where 0 is no effect and 100 is complete control)",90%
same,pest or weed control at 125 g/ha,[3]; [8],40%
same,pest or weed control at 500 g/ha,"[3]; Preemergence, visual injury vs untreated controls after approximately 10 d, read-out: Ryegrass, Italian plant response rating (0 to 100 scale where 0 is no effect and 100 is complete control)",40%
same,pest or weed control at 125 g/ha,[4]; [9],20%
same,pest or weed control at 500 g/ha,"[4]; Preemergence, visual injury vs untreated controls after approximately 10 d, read-out: Ragweed plant response rating (0 to 100 scale where 0 is no effect and 100 is complete control)",70%
same,pest or weed control at 125 g/ha,Kochia (Kochia scoparia); [10],70%
same,pest or weed control at 500 g/ha,"Kochia (Kochia scoparia); Preemergence, visual injury vs untreated controls after approximately 10 d, read-out: Kochia plant response rating (0 to 100 scale where 0 is no effect and 100 is complete control)",80%
same,pest or weed control at 125 g/ha,[5]; [11],40%
same,pest or weed control at 500 g/ha,"[5]; Preemergence, visual injury vs untreated controls after approximately 10 d, read-out: Pigweed plant response rating (0 to 100 scale where 0 is no effect and 100 is complete control)",60%
CN1CC[C@H](c2cccc(OC(F)(F)F)c2)[C@@H](C(=O)Nc2cccc(Cl)c2F)C1=O [Compound 810],pest or weed control at 125 g/ha,[1]; [6],90%
same,pest or weed control at 31 g/ha,"[1]; Preemergence, 31 g ai/ha, 0 to 100 scale (0 no effect, 100 complete control), read-out: Plant response rating, Foxtail, Giant",70%
same,pest or weed control at 125 g/ha,[2]; [7],90%
same,pest or weed control at 31 g/ha,"[2]; Preemergence, 31 g ai/ha, 0 to 100 scale (0 no effect, 100 complete control), read-out: Plant response rating, Barnyardgrass",90%
same,pest or weed control at 125 g/ha,[3]; [8],20%
same,pest or weed control at 31 g/ha,"[3]; Preemergence, 31 g ai/ha, 0 to 100 scale (0 no effect, 100 complete control), read-out: Plant response rating, Ryegrass, Italian",0%
same,pest or weed control at 125 g/ha,[4]; [9],0%
same,pest or weed control at 31 g/ha,"[4]; Preemergence, 31 g ai/ha, 0 to 100 scale (0 no effect, 100 complete control), read-out: Plant response rating, Ragweed",0%
same,pest or weed control at 125 g/ha,Kochia (Kochia scoparia); [10],0%
same,pest or weed control at 31 g/ha,"Kochia (Kochia scoparia); Preemergence, 31 g ai/ha, 0 to 100 scale (0 no effect, 100 complete control), read-out: Plant response rating, Kochia",0%
same,pest or weed control at 125 g/ha,[5]; [11],0%
same,pest or weed control at 31 g/ha,"[5]; Preemergence, 31 g ai/ha, 0 to 100 scale (0 no effect, 100 complete control), read-out: Plant response rating, Pigweed",0%
COc1cc([C@H]2CN(C)C(=O)[C@@H]2C(=O)Nc2ccccc2SC)ccc1F [Compound 1301],pest or weed control at 125 g/ha,"[1]; preemergence, visual injury rating, 0 to 100 scale where 0 is no effect and 100 is complete control, approximately 10 d, read-out: Foxtail, Giant plant response rating",90%
same,pest or weed control at 500 g/ha,"[1]; preemergence, 0 to 100 scale where 0 is no effect and 100 is complete control, read-out: Foxtail, Giant plant response rating",90%
same,pest or weed control at 125 g/ha,"[2]; preemergence, visual injury rating, 0 to 100 scale where 0 is no effect and 100 is complete control, approximately 10 d, read-out: Barnyardgrass plant response rating",30%
same,pest or weed control at 500 g/ha,"[2]; preemergence, 0 to 100 scale where 0 is no effect and 100 is complete control, read-out: Barnyardgrass plant response rating",90%
same,pest or weed control at 125 g/ha,"[3]; preemergence, visual injury rating, 0 to 100 scale where 0 is no effect and 100 is complete control, approximately 10 d, read-out: Ryegrass, Italian plant response rating",0%
same,pest or weed control at 500 g/ha,"[3]; preemergence, 0 to 100 scale where 0 is no effect and 100 is complete control, read-out: Ryegrass, Italian plant response rating",0%
same,pest or weed control at 125 g/ha,"[4]; preemergence, visual injury rating, 0 to 100 scale where 0 is no effect and 100 is complete control, approximately 10 d, read-out: Ragweed plant response rating",0%
same,pest or weed control at 500 g/ha,"[4]; preemergence, 0 to 100 scale where 0 is no effect and 100 is complete control, read-out: Ragweed plant response rating",20%
same,pest or weed control at 125 g/ha,"Kochia (Kochia scoparia); preemergence, visual injury rating, 0 to 100 scale where 0 is no effect and 100 is complete control, approximately 10 d, read-out: Kochia plant response rating",30%
same,pest or weed control at 500 g/ha,"Kochia (Kochia scoparia); preemergence, 0 to 100 scale where 0 is no effect and 100 is complete control, read-out: Kochia plant response rating",60%
same,pest or weed control at 125 g/ha,"[5]; preemergence, visual injury rating, 0 to 100 scale where 0 is no effect and 100 is complete control, approximately 10 d, read-out: Pigweed plant response rating",0%
same,pest or weed control at 500 g/ha,"[5]; preemergence, 0 to 100 scale where 0 is no effect and 100 is complete control, read-out: Pigweed plant response rating",30%
Cc1cc([C@H]2CN(C)C(=O)[C@@H]2C(=O)Nc2ccc(F)c(F)c2F)ccc1F [Compound 719],pest or weed control at 125 g/ha,[1]; [6],90%
same,pest or weed control at 500 g/ha,"[1]; preemergence, 0 to 100 scale, 0 = no effect, 100 = complete control, read-out: Plant response rating, Foxtail, Giant",90%
same,pest or weed control at 125 g/ha,[2]; [7],90%
same,pest or weed control at 500 g/ha,"[2]; preemergence, 0 to 100 scale, 0 = no effect, 100 = complete control, read-out: Plant response rating, Barnyardgrass",90%
same,pest or weed control at 125 g/ha,[3]; [8],70%
same,pest or weed control at 500 g/ha,"[3]; preemergence, 0 to 100 scale, 0 = no effect, 100 = complete control, read-out: Plant response rating, Ryegrass, Italian",90%
same,pest or weed control at 125 g/ha,[4]; [9],20%
same,pest or weed control at 500 g/ha,"[4]; preemergence, 0 to 100 scale, 0 = no effect, 100 = complete control, read-out: Plant response rating, Ragweed",70%
same,pest or weed control at 125 g/ha,Kochia (Kochia scoparia); [10],70%
same,pest or weed control at 500 g/ha,"Kochia (Kochia scoparia); preemergence, 0 to 100 scale, 0 = no effect, 100 = complete control, read-out: Plant response rating, Kochia",80%
same,pest or weed control at 125 g/ha,[5]; [11],50%
same,pest or weed control at 500 g/ha,"[5]; preemergence, 0 to 100 scale, 0 = no effect, 100 = complete control, read-out: Plant response rating, Pigweed",90%
